Data published in ChEMBL document CHEMBL3045247, “GUANIDINES: FROM MOLECULE TO PRIMATE” (2004).

Columns and labels:
Set-up in all cases: scale not given: the % may be the effect or the level left
Papio ursinus [1] = experiment: Cardioprotective activity in Papio ursinus (baboon) ischaemic reperfusion injury model assessed as reduction of systolic blood pressure at 2 mg/kg, iv after 25 min; assay type: functional, Artery
Papio ursinus [2] = experiment: Cardioprotective activity in Papio ursinus (baboon) ischaemic reperfusion injury model assessed as reduction of heart rate at 2 mg/kg, iv after 10 min relative to control; assay type: functional
Papio ursinus [3] = experiment: Cardioprotective activity in Papio ursinus (baboon) ischaemic reperfusion injury model assessed as reduction of heart rate at 1 mg/kg, iv after 4 min relative to control; assay type: functional
Papio ursinus [4] = experiment: Cardioprotective activity in Papio ursinus (baboon) ischaemic reperfusion injury model assessed as reduction of systolic blood pressure at 2 mg/kg, iv after 20 min; assay type: functional, Artery
Papio ursinus [5] = experiment: Cardioprotective activity in Papio ursinus (baboon) ischaemic reperfusion injury model assessed as reduction of diastolic blood pressure at 1 mg/kg, iv after 6 min; assay type: functional, Artery
Papio ursinus [6] = experiment: Cardioprotective activity in Papio ursinus (baboon) ischaemic reperfusion injury model assessed as reduction of systolic blood pressure at 1 mg/kg, iv after 20 min; assay type: functional, Artery
Papio ursinus [7] = experiment: Cardioprotective activity in Papio ursinus (baboon) ischaemic reperfusion injury model assessed as reduction of diastolic blood pressure at 2 mg/kg, iv after 10 min; assay type: functional, Artery
Papio ursinus [8] = experiment: Cardioprotective activity in Papio ursinus (baboon) ischaemic reperfusion injury model assessed as reduction of diastolic blood pressure at 2 mg/kg, iv after 20 min; assay type: functional, Artery
Papio ursinus [9] = experiment: Cardioprotective activity in Papio ursinus (baboon) ischaemic reperfusion injury model assessed as reduction of heart rate at 2 mg/kg, iv after 6 min relative to control; assay type: functional
Papio ursinus [10] = experiment: Cardioprotective activity in Papio ursinus (baboon) ischaemic reperfusion injury model assessed as reduction of systolic blood pressure at 1 mg/kg, iv after 15 min; assay type: functional, Artery
Papio ursinus [11] = experiment: Cardioprotective activity in Papio ursinus (baboon) ischaemic reperfusion injury model assessed as reduction of systolic blood pressure at 2 mg/kg, iv after 2 min; assay type: functional, Artery
Papio ursinus [12] = experiment: Cardioprotective activity in Papio ursinus (baboon) ischaemic reperfusion injury model assessed as reduction of diastolic blood pressure at 1 mg/kg, iv after 4 min; assay type: functional, Artery
Papio ursinus [13] = experiment: Cardioprotective activity in Papio ursinus (baboon) ischaemic reperfusion injury model assessed as reduction of systolic blood pressure at 1 mg/kg, iv after 10 min; assay type: functional, Artery
Papio ursinus [14] = experiment: Cardioprotective activity in Papio ursinus (baboon) ischaemic reperfusion injury model assessed as reduction of systolic blood pressure at 1 mg/kg, iv after 2 min; assay type: functional, Artery
Papio ursinus [15] = experiment: Cardioprotective activity in Papio ursinus (baboon) ischaemic reperfusion injury model assessed as reduction of diastolic blood pressure at 2 mg/kg, iv after 6 min; assay type: functional, Artery
Papio ursinus [16] = experiment: Cardioprotective activity in Papio ursinus (baboon) ischaemic reperfusion injury model assessed as reduction of heart rate at 1 mg/kg, iv after 20 min relative to control; assay type: functional
Papio ursinus [17] = experiment: Cardioprotective activity in Papio ursinus (baboon) ischaemic reperfusion injury model assessed as reduction of heart rate at 1 mg/kg, iv after 6 min relative to control; assay type: functional
Papio ursinus [18] = experiment: Cardioprotective activity in Papio ursinus (baboon) ischaemic reperfusion injury model assessed as reduction of diastolic blood pressure at 2 mg/kg, iv after 2 min; assay type: functional, Artery
Papio ursinus [19] = experiment: Cardioprotective activity in Papio ursinus (baboon) ischaemic reperfusion injury model assessed as reduction of diastolic blood pressure at 1 mg/kg, iv after 2 min; assay type: functional, Artery
Papio ursinus [20] = experiment: Cardioprotective activity in Papio ursinus (baboon) ischaemic reperfusion injury model assessed as reduction of heart rate at 2 mg/kg, iv after 15 min relative to control; assay type: functional
Papio ursinus [21] = experiment: Cardioprotective activity in Papio ursinus (baboon) ischaemic reperfusion injury model assessed as reduction of systolic blood pressure at 2 mg/kg, iv after 4 min; assay type: functional, Artery
Papio ursinus [22] = experiment: Cardioprotective activity in Papio ursinus (baboon) ischaemic reperfusion injury model assessed as reduction of diastolic blood pressure at 2 mg/kg, iv after 15 min; assay type: functional, Artery
Papio ursinus [23] = experiment: Cardioprotective activity in Papio ursinus (baboon) ischaemic reperfusion injury model assessed as reduction of systolic blood pressure at 2 mg/kg, iv after 6 min; assay type: functional, Artery
Papio ursinus [24] = experiment: Cardioprotective activity in Papio ursinus (baboon) ischaemic reperfusion injury model assessed as reduction of heart rate at 1 mg/kg, iv after 15 min relative to control; assay type: functional
Papio ursinus [25] = experiment: Cardioprotective activity in Papio ursinus (baboon) ischaemic reperfusion injury model assessed as reduction of systolic blood pressure at 1 mg/kg, iv after 6 min; assay type: functional, Artery
Papio ursinus [26] = experiment: Cardioprotective activity in Papio ursinus (baboon) ischaemic reperfusion injury model assessed as reduction of systolic blood pressure at 2 mg/kg, iv after 10 min; assay type: functional, Artery
Papio ursinus [27] = experiment: Cardioprotective activity in Papio ursinus (baboon) ischaemic reperfusion injury model assessed as reduction of heart rate at 2 mg/kg, iv after 4 min relative to control; assay type: functional
Papio ursinus [28] = experiment: Cardioprotective activity in Papio ursinus (baboon) ischaemic reperfusion injury model assessed as reduction of diastolic blood pressure at 2 mg/kg, iv after 25 min; assay type: functional, Artery
Papio ursinus [29] = experiment: Cardioprotective activity in Papio ursinus (baboon) ischaemic reperfusion injury model assessed as reduction of diastolic blood pressure at 1 mg/kg, iv after 10 min; assay type: functional, Artery
Papio ursinus [30] = experiment: Cardioprotective activity in Papio ursinus (baboon) ischaemic reperfusion injury model assessed as reduction of heart rate at 2 mg/kg, iv after 2 min relative to control; assay type: functional
Papio ursinus [31] = experiment: Cardioprotective activity in Papio ursinus (baboon) ischaemic reperfusion injury model assessed as reduction of heart rate at 1 mg/kg, iv after 25 min relative to control; assay type: functional
Papio ursinus [32] = experiment: Cardioprotective activity in Papio ursinus (baboon) ischaemic reperfusion injury model assessed as reduction of systolic blood pressure at 1 mg/kg, iv after 4 min; assay type: functional, Artery
Papio ursinus [33] = experiment: Cardioprotective activity in Papio ursinus (baboon) ischaemic reperfusion injury model assessed as reduction of heart rate at 1 mg/kg, iv after 10 min relative to control; assay type: functional
Papio ursinus [34] = experiment: Cardioprotective activity in Papio ursinus (baboon) ischaemic reperfusion injury model assessed as reduction of systolic blood pressure at 1 mg/kg, iv after 25 min; assay type: functional, Artery
Papio ursinus [35] = experiment: Cardioprotective activity in Papio ursinus (baboon) ischaemic reperfusion injury model assessed as reduction of systolic blood pressure at 2 mg/kg, iv after 15 min; assay type: functional, Artery
Papio ursinus [36] = experiment: Cardioprotective activity in Papio ursinus (baboon) ischaemic reperfusion injury model assessed as reduction of diastolic blood pressure at 1 mg/kg, iv after 15 min; assay type: functional, Artery
Papio ursinus [37] = experiment: Cardioprotective activity in Papio ursinus (baboon) ischaemic reperfusion injury model assessed as reduction of diastolic blood pressure at 2 mg/kg, iv after 4 min; assay type: functional, Artery
Papio ursinus [38] = experiment: Cardioprotective activity in Papio ursinus (baboon) ischaemic reperfusion injury model assessed as reduction of diastolic blood pressure at 1 mg/kg, iv after 20 min; assay type: functional, Artery
Papio ursinus [39] = experiment: Cardioprotective activity in Papio ursinus (baboon) ischaemic reperfusion injury model assessed as reduction of heart rate at 1 mg/kg, iv after 2 min relative to control; assay type: functional
Papio ursinus [40] = experiment: Cardioprotective activity in Papio ursinus (baboon) ischaemic reperfusion injury model assessed as reduction of diastolic blood pressure at 1 mg/kg, iv after 25 min; assay type: functional, Artery
Papio ursinus [41] = experiment: Cardioprotective activity in Papio ursinus (baboon) ischaemic reperfusion injury model assessed as reduction of heart rate at 2 mg/kg, iv after 25 min relative to control; assay type: functional
Papio ursinus [42] = experiment: Cardioprotective activity in Papio ursinus (baboon) ischaemic reperfusion injury model assessed as reduction of heart rate at 2 mg/kg, iv after 20 min relative to control; assay type: functional

COc1ccc(/C=N/NC(=N)N)c(Cl)c1OC
Activity (Papio ursinus [1]): 9.54%
Activity (Papio ursinus [2]): 18.88%
Activity (Papio ursinus [3]): 10.77%
Activity (Papio ursinus [4]): 8.48%
Activity (Papio ursinus [5]): 3.8%
Activity (Papio ursinus [6]): 10.56%
Activity (Papio ursinus [7]): 1.02%
Activity (Papio ursinus [8]): 4.9%
Activity (Papio ursinus [9]): 18.96%
Activity (Papio ursinus [10]): 9.36%
Activity (Papio ursinus [11]): 5.24%
Activity (Papio ursinus [12]): 2.67%
Activity (Papio ursinus [13]): 3.62%
Activity (Papio ursinus [14]): 0.02%
Activity (Papio ursinus [15]): 1.78%
Activity (Papio ursinus [16]): 15.6%
Activity (Papio ursinus [17]): 14.6%
Activity (Papio ursinus [18]): 10.1%
Activity (Papio ursinus [19]): 0.02%
Activity (Papio ursinus [20]): 19.68%
Activity (Papio ursinus [21]): 3.1%
Activity (Papio ursinus [22]): 2.2%
Activity (Papio ursinus [23]): 5.72%
Activity (Papio ursinus [24]): 15.47%
Activity (Papio ursinus [25]): 0.26%
Activity (Papio ursinus [26]): 7.45%
Activity (Papio ursinus [27]): 17.1%
Activity (Papio ursinus [28]): 2.78%
Activity (Papio ursinus [29]): 7.58%
Activity (Papio ursinus [30]): 12.95%
Activity (Papio ursinus [31]): 18.28%
Activity (Papio ursinus [32]): 0.3%
Activity (Papio ursinus [33]): 15.96%
Activity (Papio ursinus [34]): 16.22%
Activity (Papio ursinus [35]): 6.84%
Activity (Papio ursinus [36]): 15.16%
Activity (Papio ursinus [37]): 4.24%
Activity (Papio ursinus [38]): 31.36%
Activity (Papio ursinus [39]): 5.33%
Activity (Papio ursinus [40]): 20.31%
Activity (Papio ursinus [41]): 27.74%
Activity (Papio ursinus [42]): 19.52%
